Key:
murine thymocytes = experiment: Inhibition of IL-1β-induced proliferation of murine thymocytes; assay type: cell-based, mouse; settings: for Thymocyte proliferation to IL-1β 300 pg/ml, ID50: C3H/HeJ thymocytes with PHA, 72 hours; for Thymocyte proliferation to IL-1β 30 pg/ml, ID50: murine thymocytes
Method: 1. Proliferation of murine thymocytes: normal thymocytes are obtained by breaking up thymus glands of C3H/HeJ mice (resistant to bacterial endotoxin) aged 4-8 weeks. The thymocytes (5×10^5 cells/well of Cluster^96 plates) are incubated for 72 hours in RPMI-1640 culture medium with addition of antibiotics, L-glutamine, 2-ME, HEPES and 5% foetal calf serum at 37° C. in air with 5% CO2. […] To determine the proliferation of the thymocytes induced by IL-1, at the end of 72 hours of incubation […] of culture medium containing […] of tritiated thymidine are added to each well. After another 18 hours, the cells from each well are harvested onto small glass-fibre disks and the radioactivity incorporated (proportional to the proliferation of the cells) is measured with a β-counter. For determination of the inhibitory capacity of the improved mutants of IL-1ra , the proliferation of the thymocytes is measured in response to the minimum dose of IL-1 that induces optimum proliferation (generally around 0.3 ng/ml) in the absence or in the presence of stepped doses of IL-1ra (control standard) or of the improved mutants. The improved inhibitory activity of the mutants is determined by calculating the shift of the inhibition curve towards the lower doses when compared with the curve of IL-1ra .

IL-1β [1] = experiment: Inhibition of IL-1β-induced hypoglycaemia in vivo; settings: hypoglycaemia induced in the mouse by 5.0 μg/kg IL-1β, intraperitoneal, serum glucose after two hours
Method: 1. Induction of hypoglycaemia: C3H/HeJ mice or mice of some other strain (3-5 mice/test group) receive stepped doses of IL-1β by intraperitoneal administration. After two hours the animals are killed and the blood is collected for preparation of the serum. The serum glucose content is determined after reaction with glucose oxidase in a commercial calorimetric assay.

human osteosarcoma MG-63 = experiment: Inhibition of IL-1β-induced IL-6 production in MG-63 cells; assay type: cell-based; settings: MG-63 cells stimulated with IL-1 around 0.3 ng/ml, 48 hours
Method: The quantity of IL-6 in the culture supernatants is measured by a commercial ELISA assay or determined in the biological assay of proliferation of 7TD1 cells.

IL-1RII = target: T1, IL-1RII (Homo sapiens, UniProt P27930); experiment: Binding to IL-1RII: displacement of 125I-IL-1β on cells expressing IL-1RII selectively; settings: displacement of 125I IL-1β equilibrium binding on 10^6 cells
T1 construct: cells which express IL-1RII selectively (e.g. Burkitt's human lymphoma RAJI clone 1H7); endogenous in cells; host or cells: RAJI clone 1H7 (Burkitt's human lymphoma)
T1 sequence (P27930 14-398): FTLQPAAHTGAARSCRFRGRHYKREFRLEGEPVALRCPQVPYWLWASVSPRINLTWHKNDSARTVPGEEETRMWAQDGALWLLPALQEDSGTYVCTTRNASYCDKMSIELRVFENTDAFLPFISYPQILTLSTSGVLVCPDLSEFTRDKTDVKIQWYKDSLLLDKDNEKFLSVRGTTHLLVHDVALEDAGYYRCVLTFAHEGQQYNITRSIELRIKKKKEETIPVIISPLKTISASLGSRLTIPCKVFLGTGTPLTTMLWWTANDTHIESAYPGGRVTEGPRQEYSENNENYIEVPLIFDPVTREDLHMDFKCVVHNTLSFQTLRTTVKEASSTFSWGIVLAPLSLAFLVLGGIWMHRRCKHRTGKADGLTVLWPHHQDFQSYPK
Method: (§1) The inhibitory activity of the improved IL-1ra mutants is measured in receptor binding assays, using IL-1ra as the reference standard. Cells which express IL-1RI selectively (e.g. the murine thymoma clone EL4-6.1) and cells which express IL-1RII selectively (e.g. Burkitt's human lymphoma RAJI clone 1H7) are chosen as target cells. The number of receptors per cell and the binding affinity (Kd) in both the lines are calculated from saturation curves obtained by incubating the cells (10^6 cells/test tube in a final volume of 0.1 ml of culture medium with NaN3) with increasing doses of IL-1β labelled with 125I in the presence or absence of a 500-fold molar excess of unlabelled IL-1β (for calculating non-specific binding, generally always less than 5-10%) for the optimum times and at the optimum temperatures for attaining equilibrium (generally 2 hours at room temperature) (Scapigliati et al. FEBS Lett. 243: 394, 1989). To calculate the inhibition activity, tests are conducted by incubating the cells with a concentration of radiolabelled IL-1β corresponding to approximately half of the Kd in the absence or in the presence of stepped doses of IL-1ra (reference standard) or of the improved mutant.
(§2) The improved inhibitory activity of the mutants is determined by calculating the shift of the inhibition curve towards the lower doses when compared with the curve of IL-1ra.

IL-1β [2] = experiment: Inhibition of IL-1β-induced neutrophilia in vivo; settings: neutrophilia induced in the mouse by 150 ng/kg IL-1β; antagonist intraperitoneally at -15 min, 0, +15 min; read four hours after treatment
Method: 2. Induction of neutrophilia: C3H/HeJ mice or mice of some other strain (3 mice/test group) receive stepped doses of IL-1β with a single intraperitoneal administration. The increase of circulating neutrophils induced by IL-1 is evaluated by cytofluorimetry four hours after the treatment.

IL-1RI = target: T2, IL-1RI (Mus musculus, UniProt P13504); experiment: Binding to IL-1RI: displacement of 125I-IL-1β on cells expressing IL-1RI selectively; settings: displacement of 125I IL-1β equilibrium binding on 10^6 cells; murine thymoma clone EL4-6.1
T2 construct: Cells which express IL-1RI selectively (e.g. the murine thymoma clone EL4-6.1); endogenous in cells; host or cells: EL4-6.1 (murine thymoma clone)
T2 sequence (P13504 20-576): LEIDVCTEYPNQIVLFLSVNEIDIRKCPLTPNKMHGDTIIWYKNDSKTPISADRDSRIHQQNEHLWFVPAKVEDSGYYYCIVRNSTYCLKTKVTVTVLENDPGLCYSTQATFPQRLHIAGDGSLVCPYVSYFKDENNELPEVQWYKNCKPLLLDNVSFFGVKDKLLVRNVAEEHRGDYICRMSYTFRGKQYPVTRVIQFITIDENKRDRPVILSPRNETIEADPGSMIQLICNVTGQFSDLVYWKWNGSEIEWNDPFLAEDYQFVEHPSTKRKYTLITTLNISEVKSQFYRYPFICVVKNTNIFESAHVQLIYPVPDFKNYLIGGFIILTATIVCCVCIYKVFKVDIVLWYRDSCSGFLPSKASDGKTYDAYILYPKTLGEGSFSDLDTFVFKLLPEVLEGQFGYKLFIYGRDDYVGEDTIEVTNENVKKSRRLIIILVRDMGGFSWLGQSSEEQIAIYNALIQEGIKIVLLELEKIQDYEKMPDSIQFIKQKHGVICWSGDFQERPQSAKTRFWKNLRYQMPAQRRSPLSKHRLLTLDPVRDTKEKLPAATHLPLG
Method: as §1, §2

[3] = Burkitt's human lymphoma RAJI clone 1H7

| Binding to IL-1RII, ID50 (IL-1RII; [3]) | Binding to IL-1RI, ID50 (IL-1RI) | Binding to IL-1RII, ID50 (IL-1RII; RAJI clone 1H7, unit as printed in this cell) | Substance | Thymocyte proliferation to IL-1β 300 pg/ml, ID50 (murine thymocytes) | Hypoglycaemia, ID50 (IL-1β [1]) | IL-6 production, ID50 (human osteosarcoma MG-63) | Neutrophilia, ID100 (IL-1β [2]) | Thymocyte proliferation to IL-1β 30 pg/ml, ID50 (murine thymocytes) |
| --- | --- | --- | --- | --- | --- | --- | --- | --- |
| 19.60 nM | 0.34 nM |  | IL-1ra: wild type IL-1 receptor antagonist, a mature protein of 152 amino acids, used as reference standard [reference compound] | 4.10 ng/mL | 0.968 mg/kg | 3.60 ng/mL | 0.225 mg/kg | 0.813 ng/mL |
|  | 0.19 nM | 1.8 nM | MILRA-2: IL-1ra mutant T109→A (alanine in position 109 of the mature protein) | 1.75 ng/mL |  | 1.12 ng/mL |  |  |
| 70.70 nM | 0.22 nM |  | MILRA-3: IL-1ra double mutant N91/T109→R/A |  | 0.076 mg/kg |  |  | 0.285 ng/mL |

| Substance | Binding to IL-1RII, ID50 (IL-1RII; [3]) | Binding to IL-1RI, ID50 (IL-1RI) | Binding to IL-1RII, ID50 (IL-1RII; RAJI clone 1H7, unit as printed in this cell) | Thymocyte proliferation to IL-1β 300 pg/ml, ID50 (murine thymocytes) | Hypoglycaemia, ID50 (IL-1β [1]) | IL-6 production, ID50 (human osteosarcoma MG-63) | Neutrophilia, ID100 (IL-1β [2]) | Thymocyte proliferation to IL-1β 30 pg/ml, ID50 (murine thymocytes) |
| --- | --- | --- | --- | --- | --- | --- | --- | --- |
| MILRA-1: IL-1ra mutant N91→R (arginine in position 91 of the mature protein) | 13.20 nM | 0.17 nM |  | 1.78 ng/mL | 0.128 mg/kg | 0.62 ng/mL | < 0.0225 mg/kg |  |

From US5922573A, “IL-1 receptor antagonists with enhanced inhibitory activity” (Dompe' S.p.A., priority 1994, dated 1999)
